Data from the supplement of paper PMC10307832.

Columns and labels:
Assay in all cases: relative viability (nuclei count vs DMSO), 5 days (fraction); higher = more cells survive
CX-5461 + Phenformin = compound: Cc1cnc(CNC(=O)c2c(=O)c3ccc(N4CCCN(C)CC4)nc3n3c2sc2ccccc23)cn1 [CX-5461] + N=C(N)NC(=N)NCCc1ccccc1 [Phenformin] (partner 250 µM)
How it was run: (§1)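 After 5 days of treatment, lung cancer cells in 1536-well plates were fixed and stained in a single step (final 0.05% Triton X-100, 1% formaldehyde, 1 ug/ml Hoechst) and their nuclei counted on 4× images. Treatment had been applied by pin tool the day after seeding as one drug alone or as a fixed anchor-drug dose with five library-drug doses (not always all listed) in √10 steps. Relative viability is the nuclei count of treated wells divided by that of vehicle wells, and values are medians of duplicate plates.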

CX-5461 + Pemetrexed = compound: Cc1cnc(CNC(=O)c2c(=O)c3ccc(N4CCCN(C)CC4)nc3n3c2sc2ccccc23)cn1 [CX-5461] + Nc1nc2[nH]cc(CCc3ccc(C(=O)N[C@@H](CCC(=O)O)C(=O)O)cc3)c2c(=O)[nH]1 [Pemetrexed] (partner 0.2 µM)
How it was run: as §1

CX-5461 + Decitabine = compound: Cc1cnc(CNC(=O)c2c(=O)c3ccc(N4CCCN(C)CC4)nc3n3c2sc2ccccc23)cn1 [CX-5461] + Nc1ncn([C@H]2C[C@H](O)[C@@H](CO)O2)c(=O)n1 [Decitabine] (partner 2 µM)
How it was run: as §1

IMD-0354 + Linsitinib = compound: O=C(Nc1cc(C(F)(F)F)cc(C(F)(F)F)c1)c1cc(Cl)ccc1O [IMD-0354] + C[C@]1(O)C[C@@H](c2nc(-c3ccc4ccc(-c5ccccc5)nc4c3)c3c(N)nccn32)C1 [Linsitinib] (partner 1 µM)
How it was run: as §1

In the case of UMC-11, the relative viability (CX-5461 + Phenformin; first compound 0.01 µM) is reported as 0.323, the relative viability (CX-5461 + Phenformin; first compound 0.03162 µM) is reported as 0.298 and the relative viability (CX-5461 + Phenformin; first compound 0.1 µM) is reported as 0.246. For the same cell line, the relative viability (CX-5461 + Phenformin; first compound 0.3162 µM) was 0.293, the relative viability (CX-5461 + Phenformin; first compound 1 µM) was 0.217 and the relative viability (CX-5461 + Pemetrexed; first compound 0.01 µM) was 0.825. It also gave a relative viability (CX-5461 + Pemetrexed; first compound 0.03162 µM) of 0.871, a relative viability (CX-5461 + Pemetrexed; first compound 0.1 µM) of 0.722 and a relative viability (CX-5461 + Pemetrexed; first compound 0.3162 µM) of 0.763. It also gave a relative viability (CX-5461 + Pemetrexed; first compound 1 µM) of 0.408, a relative viability (CX-5461 + Decitabine; first compound 0.01 µM) of 0.611 and a relative viability (CX-5461 + Decitabine; first compound 0.03162 µM) of 0.464. The relative viability (CX-5461 + Decitabine; first compound 0.1 µM) was 0.497, the relative viability (CX-5461 + Decitabine; first compound 0.3162 µM) was 0.301 and the relative viability (CX-5461 + Decitabine; first compound 1 µM) was 0.36. It also gave a relative viability (IMD-0354 + Linsitinib; first compound 0.04 µM) of 1.04, a relative viability (IMD-0354 + Linsitinib; first compound 0.1265 µM) of 1.04 and a relative viability (IMD-0354 + Linsitinib; first compound 0.4 µM) of 0.559. For the same cell line, the relative viability (IMD-0354 + Linsitinib; first compound 1.265 µM) was 0.254 and the relative viability (IMD-0354 + Linsitinib; first compound 4 µM) was 0.285.
